Source: US12522630B2, “MRNA cap analog and uses thereof” (HANMI FINE CHEMICAL CO., LTD., priority 2022, dated 2026)

How the values were obtained:
T7 RNA polymerase = molecular target: T1, T7 RNA polymerase (Escherichia phage T7, UniProt P00573); assay: In vitro transcription of luciferase mRNA capped by co-transcriptional capping; format: biochemical; details: 4 mM cap analog, 37° C., 1 to 4 hours; compared with ^7mG(3′OMe)pppA(2′OMe)pG (set as 100%); FIG. 1
T1 construct: purchased New England Biolab #dy1670
Procedure: For mRNA synthesis reaction using the compound of Example 8 as a cap analog, a transcription mixture including a 100 ng/ml firefly luciferase DNA transcription template (including poly A 101), 5 mM ATP, CTP, GTP, and 1-N-methyl-pseudouridine 5′-triphosphate (me^1øTP), 4 mM compound of Example 8, 10 U/ml T7 RNA polymerase (New England Biolab #dy1670), 1 U/ml RNase inhibiting protein, 0.01 U/ml inorganic pyrophosphatase, 40 mM Tris·HCl (pH 8.0), 20 mM magnesium acetate, 1 mM spermidine, and 10 mM DTT was prepared. As a comparative example, a transcription mixture was prepared by adding the TriLink's trinucleotide cap analog ^m7G(3′Ome)pppA(2′oMe)pG, instead of the compound of Example 8, under the same conditions. Each of the prepared transcription mixtures was reacted at 37° C. for 1 to 4 hours. […] Concentration of the purified mRNA was measured by using a Nanodrop spectrophotometer of Thermo Scientific, and a total amount of mRNA was calculated by multiplying the concentration and reaction volume. Then, in order to derive a mRNA in vitro transcription (IVT) yield, the total amount of mRNA synthesized using each different cap analog was divided by the input L-DNA content to quantify the IVT yield value according to the cap analog. […] This may be calculated by [Equation 1] below. […]

HEK293T cells = assay: Translation of capped luciferase mRNA in HEK293T cell; format: cell-based, Human; details: compared with mRNA capped with ^7mG(3′OMe)pppA(2′OMe)pG
Procedure: Translation activity of luciferase mRNAs respectively prepared by in vitro transcription of the compound of Example 8 or ^7mG(3′OMe)pppA(2′OMe)pG in Experimental Example 1 was evaluated in Human embryonic kidney 293T cell lines (HEK293T). HEK293T cells were incubated in DMEM supplemented with 10% FBS and 1% penicillin/streptomycin at 37° C. under an atmosphere of 5% CO2. HEK293T cells were plated in a 6-well plate at a density of 1×10^5 cells/well. […] The cells were harvested after 1, 4, 6, 12, 24, and 48 hours from the transfection and luciferase activity was measured by using a Dual-Glo® Luciferase Assay kit (Promega catalog #E2910) according to manufacturer's recommendations: after removing the medium of the transfected cells, 75 μl of phosphate-buffered saline (PBS) was added thereto. Subsequently, 75 μl of a Dual-Glo® reagent was further added thereto, followed by mixing and incubation for 10 minutes, and then firefly luciferase luminescence was measured by using a luminometer (Perkin Elmer). Then, 75 μl of a Dual-Glo® Stop&Glo® reagent was further added thereto, followed by incubation for 10 minutes, and then Renilla luciferase luminescence was measured. A ratio of firefly luciferase luminous value to a Renilla luciferase luminous value, a control was calculated, and then luciferase activity per hour relative […] (RLU) was normalized, which is shown in FIG. 2. […]

T1 sequence (P00573 whole entry): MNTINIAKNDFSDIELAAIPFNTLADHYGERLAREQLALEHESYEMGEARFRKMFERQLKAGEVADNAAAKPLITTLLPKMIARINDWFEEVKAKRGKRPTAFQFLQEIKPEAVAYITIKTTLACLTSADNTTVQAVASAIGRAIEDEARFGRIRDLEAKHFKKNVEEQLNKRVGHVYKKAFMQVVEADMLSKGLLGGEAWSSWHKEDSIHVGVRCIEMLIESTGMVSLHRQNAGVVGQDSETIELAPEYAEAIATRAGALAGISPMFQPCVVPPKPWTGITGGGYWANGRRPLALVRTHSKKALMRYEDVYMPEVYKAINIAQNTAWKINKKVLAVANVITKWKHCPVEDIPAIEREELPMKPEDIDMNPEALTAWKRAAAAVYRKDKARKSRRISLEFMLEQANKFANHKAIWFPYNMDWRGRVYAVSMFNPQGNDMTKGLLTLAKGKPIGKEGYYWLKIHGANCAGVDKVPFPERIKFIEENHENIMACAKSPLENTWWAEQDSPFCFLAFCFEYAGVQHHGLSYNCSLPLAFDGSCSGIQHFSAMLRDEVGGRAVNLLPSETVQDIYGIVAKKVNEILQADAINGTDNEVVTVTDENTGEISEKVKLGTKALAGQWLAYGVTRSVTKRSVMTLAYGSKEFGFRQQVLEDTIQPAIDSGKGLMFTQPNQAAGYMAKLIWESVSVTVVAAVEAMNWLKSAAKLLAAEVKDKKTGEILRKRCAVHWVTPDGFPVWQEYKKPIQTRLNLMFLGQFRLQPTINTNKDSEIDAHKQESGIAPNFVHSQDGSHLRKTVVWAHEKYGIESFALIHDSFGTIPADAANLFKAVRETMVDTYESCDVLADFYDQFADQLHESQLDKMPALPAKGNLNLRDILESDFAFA

## COC1[C@@H](OP(=O)(O)OC[C@H]2O[C@@H](n3cnc4c(=O)[nH]c(N)nc43)C(O)[C@H]2O)[C@@H](COP(=O)(O)OP(=O)(O)OP(=O)(O)OC[C@H]2O[C@@H](n3c[n+](C)c4c(=O)[nH]c(N)nc43)C(O)[C@H]2OS(C)(=O)=O)O[C@H]1n1cnc2c(N)ncnc21 (stereo partly drawn) [Example 8, ^7mG(3′OMs)pppA(2′OMe)pG]
T7 RNA polymerase
  IVT yield of luciferase mRNA with the compound as cap analog: almost same
HEK293T cells; 1 hour to 48 hours after transfection, FIG. 3
  total protein expression level (AUC of luciferase activity) of mRNA capped with the compound: higher total protein expression level
HEK293T cells; from 6 hours to 12 hours after transfection, FIG. 2
  luciferase activity of mRNA capped with the compound: far higher luciferase activity
